Source: ChEMBL document CHEMBL1126373, “HIV and reverse transcriptase inhibition by tannins” (Bioorg Med Chem Lett, 1992)

How the values were obtained:
[1] = test system: Human immunodeficiency virus 1; experiment: Anti-HIV activity in cell culture assay expressed as IC50 values.; format: functional, organism-based
[2] = test system: Human immunodeficiency virus 1; experiment: Inhibition against HIV replication in cell culture at 20 ug/mL; format: functional; conditions: Human immunodeficiency virus 1
[3] = test system: Human immunodeficiency virus 1; experiment: Anti-HIV activity in cell culture assay expressed as EC50 values.; format: functional, organism-based; conditions: Human immunodeficiency virus 1
[4] = biological target: Human immunodeficiency virus type 1 reverse transcriptase (Human immunodeficiency virus 1) (UniProt Q72547); experiment: Inhibition against HIV- reverse transcriptase in cell culture at 20 ug/mL
[5] = test system: Human immunodeficiency virus 1; experiment: Therapeutic index was determined; conditions: read-out: Therapeutic index

For `Oc1cc(O)c2c(c1)O[C@H](c1ccc(O)c(O)c1)[C@H](O)[C@H]2c1c(O)cc(O)c2c1O[C@H](c1ccc(O)c(O)c1)[C@H](O)C2` [PROCYANIDIN B2], the IC50 ([1]; Human immunodeficiency virus 1) was over 25 µM, the inhibition at 20 µg/mL [2] was 40% and the EC50 [3] was over 25 µM. For the same compound, the inhibition [4] was 21%.

`O=C(O[C@H]1[C@H](O)C[C@](OC(=O)c2cc(O)c(O)c(O)c2)(C(=O)O)C[C@H]1O)c1cc(O)c(O)c(O)c1` showed an IC50 ([1]; Human immunodeficiency virus 1) of 45 µM, an inhibition at 20 µg/mL [2] of 65% and an EC50 [3] of 25 µM. The inhibition [4] was 0% and the selectivity ratio [5] was 1.8.

`O=C(O[C@@H]1[C@@H](c2c(O)cc(O)c3c2O[C@H](c2ccc(O)c(O)c2)[C@H](OC(=O)c2cc(O)c(O)c(O)c2)C3)c2c(O)cc(O)cc2O[C@@H]1c1ccc(O)c(O)c1)c1cc(O)c(O)c(O)c1` gave an IC50 ([1]; Human immunodeficiency virus 1) of over 25 µM, an inhibition at 20 µg/mL [2] of 90% and an EC50 [3] of 14 µM. The inhibition [4] was 0%.

`O=C(OC[C@@H]1O[C@@H](OC(=O)c2cc(O)c(O)c(O)c2)[C@@H](OC(=O)c2cc(O)c(O)c(O)c2)[C@@H](OC(=O)c2cc(O)c(O)c(O)c2)[C@@H]1OC(=O)c1cc(O)c(O)c(O)c1Oc1cc2c(c(O)c1O)-c1c(cc(O)c(O)c1O)C(=O)OC[C@@H]1O[C@@H](OC(=O)c3cc(O)c(O)c(O)c3)[C@@H](OC(=O)c3cc(O)c(O)c(O)c3)[C@@H](OC(=O)c3cc(O)c(O)c(O)c3)[C@@H]1OC2=O)c1cc(O)c(O)c(O)c1` was tested, and the IC50 ([1]; Human immunodeficiency virus 1) was 39 µM, the inhibition at 20 µg/mL [2] was 50% and the EC50 [3] was 12 µM. It also gave an inhibition [4] of 0% and a selectivity ratio [5] of 3.3.

For `O=C(OC[C@H]1O[C@@H](OC(=O)c2cc(O)c(O)c(O)c2)[C@H](OC(=O)c2cc(O)c(O)c(O)c2)[C@@H](OC(=O)c2cc(O)c(O)c(O)c2)[C@@H]1OC(=O)c1cc(O)c(O)c(O)c1)c1cc(O)c(O)c(O)c1` (stereo in doubt; 11) [PENTAGALLOYL GLUCOSE], the IC50 [1] was 45 µM, the inhibition at 20 µg/mL [2] was 65% and the EC50 [3] was 18 µM. It also gave a selectivity ratio [5] of 2.5.

`Oc1cc(O)c2c(c1)O[C@H](c1ccc(O)c(O)c1)[C@H](O)[C@H]2c1c(O)cc(O)c2c1O[C@@]1(c3ccc(O)c(O)c3)Oc3cc(O)c4c(c3[C@@H]2[C@H]1O)O[C@H](c1ccc(O)c(O)c1)[C@H](O)[C@H]4c1c(O)cc(O)c2c1O[C@H](c1ccc(O)c(O)c1)[C@H](O)C2` [CINNAMTANNIN B2] was tested, and the IC50 ([1]; Human immunodeficiency virus 1) was over 25 µM, the inhibition at 20 µg/mL [2] was 73% and the EC50 [3] was 15 µM. It also gave an inhibition [4] of 19% and a selectivity ratio [5] of over 1.7.

`O=C(O[C@@H]1O[C@@H]2COC(=O)c3cc(O)c(O)c(O)c3-c3c(cc(O)c(O)c3O)C(=O)O[C@H]([C@H]1O)[C@@H]2O)c1cc(O)c(O)c(O)c1` [CORILAGIN] was tested, and the IC50 ([1]; Human immunodeficiency virus 1) was 15 µM, the inhibition at 20 µg/mL [2] was 90% and the EC50 [3] was 15 µM. The inhibition [4] was 57% and the selectivity ratio [5] was 1.

`CC1(C)CC[C@]2(C(=O)O)CC[C@]3(C)C(=CCC4[C@@]5(C)C[C@@H](O)[C@@H]6OC(=O)c7cc(O)c(O)c(O)c7-c7c(cc(O)c(O)c7O)C(=O)OC[C@@]6(CO)C5CC[C@]43C)C2C1` (stereo partly specified) gave an IC50 ([1]; Human immunodeficiency virus 1) of 40 µM, an inhibition at 20 µg/mL [2] of 23% and an EC50 [3] of 40 µM. It also gave an inhibition [4] of 18% and a selectivity ratio [5] of 1.

In the case of `Oc1cc(O)c2c(c1)O[C@@]1(c3ccc(O)c(O)c3)Oc3cc(O)c4c(c3[C@@H]2[C@H]1O)O[C@H](c1ccc(O)c(O)c1)[C@H](O)C4` [PROANTHOCYANIDIN A2], the IC50 ([1]; Human immunodeficiency virus 1) is reported as over 25 µM, the inhibition at 20 µg/mL [2] is reported as 30% and the EC50 [3] is reported as over 25 µM. For the same compound, the inhibition [4] was 18%.

`CC1(C)CC[C@]2(C(=O)O[C@@H]3O[C@H](CO)[C@@H](O)[C@H](O)[C@H]3O)CC[C@]3(C)C(=CCC4[C@@]5(C)C[C@@H](O)[C@@H]6OC(=O)c7cc(O)c(O)c(O)c7-c7c(cc(O)c(O)c7O)C(=O)OC[C@@]6(CO)C5CC[C@]43C)C2C1` (stereo partly specified) was tested, and the IC50 ([1]; Human immunodeficiency virus 1) was 28 µM, the inhibition at 20 µg/mL [2] was 47% and the EC50 [3] was 18 µM. It also gave an inhibition [4] of 17% and a selectivity ratio [5] of 1.6.

Compound `O=C(OC[C@H]1O[C@@H](OC(=O)c2cc(O)c(O)c(O)c2)[C@H](OC(=O)c2cc(O)c(O)c(O)c2)[C@@H](O)[C@@H]1O)c1cc(O)c(O)c(O)c1` has an IC50 ([1]; Human immunodeficiency virus 1) of 19 µM, an inhibition at 20 µg/mL [2] of 20% and an EC50 [3] of 50 µM. The inhibition [4] was 16% and the selectivity ratio [5] was 0.4.

With `Oc1cc(O)c2c(c1)O[C@H](c1ccc(O)c(O)c1)[C@H](O)[C@H]2c1c(O)cc(O)c2c1O[C@H](c1ccc(O)c(O)c1)[C@H](O)[C@H]2c1c(O)cc(O)c2c1O[C@H](c1ccc(O)c(O)c1)[C@H](O)C2` [PROCYANIDIN C1] the IC50 ([1]; Human immunodeficiency virus 1) was over 25 µM, the inhibition at 20 µg/mL [2] was 68% and the EC50 [3] was over 25 µM. The inhibition [4] was 18% and the selectivity ratio [5] was over 1.

`O=C1OCC2OC(=O)c3cc(O)c(O)c(O)c3-c3c(O)c(O)c(O)c4c3C(=O)OC(C2OC(=O)c2cc(O)c(O)c(O)c2-c2c1cc(O)c(O)c2O)C1OC(=O)c2c-4c(O)c(O)c(O)c2[C@@H]1c1c(O)cc(O)c2c1O[C@H](c1ccc(O)c(O)c1)[C@@H](O)C2` (stereo partly specified) showed an IC50 ([1]; Human immunodeficiency virus 1) of 15 µM, an inhibition at 20 µg/mL [2] of 88% and an EC50 [3] of 4 µM. It also gave an inhibition [4] of 24% and a selectivity ratio [5] of 3.8.

`O=C1O[C@H]2[C@H](OC(=O)c3cc(O)c(O)c(O)c3)[C@@H](OC(=O)c3cc(O)c(O)c4c3[C@@H]3C1=CC(=O)C(O)(O)C3(O)O4)[C@H](OC(=O)c1cc(O)c(O)c(O)c1)O[C@@H]2COC(=O)c1cc(O)c(O)c(O)c1` (stereo partly specified) [TERCHEBIN] was tested, and the IC50 ([1]; Human immunodeficiency virus 1) was 40 µM, the inhibition at 20 µg/mL [2] was 50% and the EC50 [3] was 21 µM. For the same compound, the inhibition [4] was 13% and the selectivity ratio [5] was 1.9.
